A word on the IC50: it is the concentration needed to halve the response being measured.

“Also recorded” adds a separate entry of the source. Read-outs that look alike come from different tables or passages of the source.

Data on two molecules can be found in US20230278957A1, “TREX1 INHIBITORS AND USES THEREOF” (WAKE FOREST UNIVERSITY HEALTH SCIENCES, priority 2020, published 2023).

Format in all cases: biochemical
The target of assay [1] is T1, TREX1 (Homo sapiens, UniProt Q9NSU2).
T1 sequence (Q9NSU2 1-242): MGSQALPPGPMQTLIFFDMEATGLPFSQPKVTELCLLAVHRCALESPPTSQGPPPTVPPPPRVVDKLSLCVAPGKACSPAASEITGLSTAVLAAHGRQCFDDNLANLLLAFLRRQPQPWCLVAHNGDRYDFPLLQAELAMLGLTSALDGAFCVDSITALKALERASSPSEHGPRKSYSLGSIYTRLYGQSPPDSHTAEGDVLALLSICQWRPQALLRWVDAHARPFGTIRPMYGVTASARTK
Description: gel-based ssDNA degradation assay, inhibition kinetics. To be noted: 15 nM or 515 nM FAM-labeled 30-mer oligo.
Description: Reactions are incubated at room temperature for 20 min, quenched, dried in vacuo, resuspended, and visualized on a urea-polyacrylamide gel. Initial velocities of each reaction are calculated via densitometric analysis of the gel, and then normalized to vehicle control reactions to calculate percent activities. Dose-response plots are fitted with nonlinear regression to interpolate IC50.

The target of assay [2] is T2, recombinant hTREX1(1-242)WT (hT1) (Homo sapiens, UniProt Q9NSU2).
T2 construct: recombinant hTREX1(1-242)^WT
T2 sequence (Q9NSU2 1-242): T1 sequence (Q9NSU2 1-242)
Description: fluorescence-based exonuclease assay, hTREX1 IC50 and HTS. The procedure:
FIG. 1: Determining IC50 of Candidate Compounds. […] Standard time-course reactions were prepared in 150 µL volumes containing vehicle or indicated concentrations of inhibitor (Panel A= 0.1-10 µM; Panel C= 1-50 µM), incubated 1 hr at room temperature, and 20 µL samples of each reaction taken at time-points of 0, 5, 10, 20, 30, 45, & 60 minutes and quenched in 20 µL of 15X SYBR Green. Fluorescence was measured, and fluorescence versus time plots were normalized to maximal initial fluorescence and background fluorescence. Plots were fitted with nonlinear regression, then initial velocities of each reaction interpolated and normalized to vehicle-only control reactions to give percent activity. Plots of inhibitor concentration versus percent activity were fit with nonlinear regression to interpolate compound IC50. Plots were generated in Prism (GraphPad) and combined in PowerPoint. Active compounds had IC50 determined in at least three separate experiments. Panels E-F: Gel Assay Validation of Hit Compound IC50. Several hit compounds, including those shown, had their IC50 confirmed via gel assay to validate efficacy of the fluorescence-based biochemical assay. Results of the gel and fluorescence assays were in agreement for all compounds tested. Standard time-course reactions containing nicked plasmid were prepared in 150 µL volumes with the indicated concentrations of inhibitor, and incubated at room temperature. Reaction samples were taken at indicated times, quenched, dried in vacuo, resuspended, then visualized by agarose gel electrophoresis. Control lanes containing supercoiled dsDNA plasmid (‘Plasmid’) and undegraded nicked dsDNA plasmid (‘Nicked’) are included. Low-MW residual bands are ssDNA plasmid leftover from TREX1 exonuclease activity.
We altered a reported fluorescence-based exonuclease assay^17,23 for the purposes of HTS. The assay parameters were optimized to limit materials use and maximize the dynamic range of the assay readout. We used this assay to perform a HTS of the three mentioned libraries against recombinant hTREX1(1-242)^WT, hereafter abbreviated as ‘hT1’. In the case of all libraries, compounds eliciting ≤50% activity at their indicated screening concentrations were identified as ‘candidates’.
The biochemical assay used for HTS was also applied to determining candidate IC50. Briefly, time-course reactions were performed for a range of concentrations for each candidate, and plots of fluorescence vs time were normalized to the initial fluorescence of the reaction and the plate-wide background fluorescence. This normalization helped address compounds with inherent effects on the fluorescent readout. Initial velocities were calculated from normalized plots and used to calculate percent activities relative to vehicle-only control reactions. Standard dose-response curves were then constructed to interpolate candidate IC50. […] Candidates that initially tested with IC50 ≤100 µM had their IC50 redetermined in two additional, independent experiments. […] To validate the efficacy of the fluorescence-based assay at determining IC50, several of the hit compounds had their IC50 confirmed using a gel assay previously described by our lab^23. Briefly, a dsDNA plasmid is nicked, the substrate is incubated with TREX1 which degrades off (partially or completely) the nicked strand, and the reaction is quenched in ethanol, dried in vacuo, and visualized via agarose gel electrophoresis. Example data of these validation assays is provided (FIG. 1, Panels E-F).

Assay [3] deals with T3, recombinant wild-type murine TREX1(1-242) (mT1) (Mus musculus, UniProt Q91XB0).
T3 construct: recombinant wild-type murine TREX1(1-242), hereafter ‘mT1’
T3 sequence (Q91XB0 1-242): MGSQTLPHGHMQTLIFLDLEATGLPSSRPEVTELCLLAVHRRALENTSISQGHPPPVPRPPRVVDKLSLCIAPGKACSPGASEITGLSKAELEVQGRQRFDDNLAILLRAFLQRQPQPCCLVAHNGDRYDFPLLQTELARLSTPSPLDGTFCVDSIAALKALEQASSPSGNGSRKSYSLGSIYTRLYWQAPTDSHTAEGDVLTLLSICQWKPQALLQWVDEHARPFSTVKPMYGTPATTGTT
Description: fluorescence-based exonuclease assay, counter-screen against mTREX1. To be noted: up to an inhibitor concentration of 100 µM. The procedure:
(§1) FIG. 3: Counter-Screening Hit Compounds Against mTREX1 and hTREX2 Enzymes. Panel A: Summary chart of lead compounds’ IC50 against hTREX1 vs mTREX1 versus hTREX2. Panels B-F: Overlay of lead compounds’ dose-response curves for hTREX1, mTREX1, and hTREX2. Dose-response curves were generated as described earlier. Each dose-response curve is representative of three IC50 experiments. Graphs were prepared in Prism (GraphPad), and figure was assembled in PowerPoint.
(§2) We were also interested in the activity of our leads against enzymes more closely related to hT1, namely murine TREX1 and the highly related human TREX2 enzyme. mTREX1 was of interest, since future studies of the lead compounds would presumably take place in a murine model. hTREX2, which also functions as a 3′➔5′ exonuclease, is primarily expressed in keratinocytes (while TREX1 expression is more ubiquitous), and its mutation is not associated with an autoimmune phenotype, but instead results in a hypermutator phenotype in the skin that is conditional upon exposure to ultraviolet radiation^10,72-74. For mTREX1, cross-activity was preferred to allow later efficacy studies in a murine model. […] We determined the IC50 of lead compounds for recombinant wild-type murine TREX1(1-242), hereafter ‘mT1’, and for recombinant wild-type human TREX2(1-236), hereafter ‘hT2’ (FIG. 2). […]

Assay [4] addresses T4, recombinant wild-type human TREX2(1-236) (hT2) (Homo sapiens, UniProt Q9BQ50).
T4 construct: recombinant wild-type human TREX2(1-236), hereafter ‘hT2’
T4 sequence (Q9BQ50 1-236): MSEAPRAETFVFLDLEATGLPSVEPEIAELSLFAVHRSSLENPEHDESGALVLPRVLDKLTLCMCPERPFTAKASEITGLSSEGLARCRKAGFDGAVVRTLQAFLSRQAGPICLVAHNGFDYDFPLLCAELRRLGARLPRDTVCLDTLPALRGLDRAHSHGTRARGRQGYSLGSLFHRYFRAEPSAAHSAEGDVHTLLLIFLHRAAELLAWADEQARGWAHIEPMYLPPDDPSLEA
The experiment in a line: fluorescence-based exonuclease assay, counter-screen against hTREX2. The following applies: up to an inhibitor concentration of 100 µM. The procedure: as §1, §2
In general terms: A counterscreen serves to expose hits that act by an unwanted route or on another target.

Setting [5] is: experiment 1, read-out: IC50 #1.
[6] abbreviates: experiment 2, read-out: IC50 #2.
[7] abbreviates: experiment 3, read-out: IC50 #3.
Where [8] appears, read: median of three independent experiments, read-out: Median IC50.

In the case of `O=C1c2ccccc2C(=O)c2c1cc(S(=O)(=O)O)c(O)c2O` [TIM009], in assay [1], the “mechanism of inhibition classification” value is “mixed inhibitor”. The half-maximal inhibitory concentration (IC50) in assay [2] (setting [5]) worked out at 0.3 µM; in assay [2] (setting [6]) it was 1.1 µM; in assay [2] (setting [7]), 1.5 µM; in assay [2] (setting [8]), 1.1 µM.
As to `O=C(c1ccc2nonc2c1)N1CCCCC1c1nc2cc(F)ccc2[nH]1` (stereo not drawn) [TIM218], the “inhibition of mT1” value in assay [3] is listed as “no detectable inhibition; also recorded: does not inhibit mT1”. The “inhibition of hT2” value in assay [4] is “no detectable inhibition”. Moreover, in assay [2], the “inhibition of hT1 (in words)” value was “did inhibit hT1”. Further, the IC50 in assay [2] (setting [5]) was 12.7 µM; in assay [2] (setting [6]), 7.6 µM; in assay [2] (setting [7]) it was 17.8 µM; in assay [2] (setting [8]), 12.7 µM.
